Assay results taken from patent US9400283B2, “In vitro method using human skin for evaluating the influence of ABC transporters” (GALDERMA RESEARCH & DEVELOPMENT, priority 2011, dated 2016).

Assays:
human skin samples [1] = assay: Cutaneous distribution of LTC4 by autoradiography of skin sections; assay type: in vitro ADME
Method: The distribution of Vinblastine in the skin was analyzed by autoradiography. Skin samples were placed in a tissue holder and freeze-mounted in cryomount embedding medium. The frozen blocks were sectioned into slices 8-10 μm thick, perpendicular to the epidermal surface in a cryomicrotome (Thermo Electron). The sections were collected on glass slides and dried. Cryosections were placed on a Fuji imaging plate type Bas-III (20×40 cm) in a Fujix Bas cassette 2040 during 24 hours to 5 days. The exposed plate was scanned with a Bio-Imaging analyzer (Fujix BAS 2000). The scanned images were analyzed using TINA software.
The distribution of the LTC4 in the skin was analyzed by autoradiography. The experimental conditions are identical to those described previously for vinblastine.

human skin samples [2] = assay: In vitro cutaneous absorption of LTC4 (receptor fluid, liquid scintillation counting); assay type: in vitro ADME; conditions: 68.5 nM LTC4 10 μL/cm2, 6 hours
Method: Tritium labeled LTC4 was used. The concentration of the LTC4 solution used was 68.5 nM (0.01 mCi/mL).
At the end of the period of treatment with the inhibitor, the skin samples, both the control samples and those treated with the inhibitor, were treated with the LTC4 solution. […] The duration of the treatment with LTC4 was 6 hours.
The in vitro LTC4 skin absorption experiments were performed with fresh skin samples originating from three different donors. The experiments were performed in 6-well Transwell plates, with a 1 cm^2 area of treated skin and receptor fluid volumes of 1.5 mL. The treatment volume for the skin surface was 10 μL, corresponding to 0.69 […] and 222 000 dpm. Three different experiments were performed with skin samples originating from three different donors. In each experiment, each condition was performed in triplicate (N=9 in total).

[3] = system: ex vivo human skin samples; assay: In vitro skin absorption of vinblastine (receptor fluid, liquid scintillation counting); conditions: for vinblastine skin absorption (amount in receptor fluid): 16 hours
human skin samples [4] = assay: Skin distribution of Rhodamine 123 by epifluorescence microscopy; assay type: in vitro ADME; conditions: skin samples treated with Verapamil, data not shown

SMILES: CN(C)C(=O)CCSC(SCCC(=O)O)c1cccc(/C=C/c2ccc3ccc(Cl)cc3n2)c1 (stereo not shown) [MK571]
- effect of MK571 on cutaneous distribution of LTC4 (autoradiography signal) (human skin samples [1]; skin treated with the inhibitor MK571): appreciable increase in the intensity of the signal related to LTC4

SMILES: CCCCC/C=C\C\C=C/C=C/C=C/[C@@H](SC[C@H](NC(=O)CC[C@H](N)C(=O)O)C(=O)NCC(=O)O)[C@@H](O)CCCC(=O)O [LTC4, leukotriene-C4]
- cutaneous absorption of LTC4, share of the applied dose (human skin samples [2]): about 1.7 % of the applied dose
- cutaneous distribution of LTC4 (autoradiography signal) (human skin samples [1]; skin sections without treatment with the inhibitor): a radioactive signal related to LTC4 is observed in the uppermost part of the skin section corresponding to the epidermis

SMILES: CC[C@]1(O)C[C@@H]2CN(CCc3c([nH]c4ccccc34)[C@@](C(=O)OC)(c3cc4c(cc3OC)N(C)[C@H]3[C@@](O)(C(=O)OC)[C@H](OC(C)=O)[C@]5(CC)C=CCN6CC[C@]43[C@@H]65)C2)C1 [vinblastine, Vinblastine]
- vinblastine skin absorption (amount in receptor fluid) ([3]; dermarolled skin (32 roller passages)): 0.6 nmol
- increase of vinblastine skin absorption by skin perforation by dermaroller ([3]; dermarolled versus intact skin): about 200 times
- vinblastine skin absorption, share of the applied dose ([3]; intact human skin, 2.5 mM [3H]-vinblastine 10 μL/cm2, 16 hours, receptor fluid): 0.001 % of the applied dose
- vinblastine skin absorption (amount in receptor fluid) ([3]; intact human skin): 0.003 nmol
- increase of vinblastine skin absorption by tape stripping ([3]; stripped versus intact skin): about 20 times
- vinblastine skin absorption (amount in receptor fluid) ([3]; tape stripped skin (30 stripes)): 0.07 nmol

SMILES: COc1ccc(CCN(C)CCCC(C#N)(c2ccc(OC)c(OC)c2)C(C)C)cc1OC (stereo not shown) [verapamil, Verapamil]
- effect of Verapamil on Rhodamine 123 fluorescence intensity in skin sections (human skin samples [4]): No difference in fluorescence intensity
